Assay results taken from patent US8742141B2, “Inhibition and treatment of prostate cancer metastasis” (Northwestern University, priority 2008, dated 2014).
Like-named read-outs stand apart in the source and are kept apart here.

Tests used:
[1] = tested on: prostate epithelial cells; assay: Phase 2 trial, nuclear morphology of prostate epithelial cells; assay type: in vivo, human; settings: genistein treated men vs controls
Description: Though morphologically “normal,” these cells are present within organs with PCa, have pre-cancer molecular changes, and represent an appropriate target cell type for therapy that inhibits a process associated with PCa progression, in this case, development of the metastatic phenotype. […] These findings are consistent with its effects in vitro and in mice.

MMP-2 = assay: Phase 2 trial, MMP-2 transcript by qRT/PCR in LCM normal prostate epithelial cells; assay type: in vivo, human; settings: 2 mg genistein/kg/day
Method: Of 38 subjects completing the study, MMP-2 expression was analyzed in tissue from 12 genistein-treated subjects and 12 controls. […] MMP-2 expression was measured by removing normal prostate epithelial cells from intact fresh frozen prostate tissue by laser capture microdissection (LCM), isolating RNA, treating with DNase, assessing RNA quality by capillary electrophoresis, and measuring MMP-2 transcript levels by qRT/PCR (normalizing to GAPDH), using exon spanning primers.

human PC3-M PCa cells = assay: Orthotopic PC3-M implantation metastasis model in athymic mice
[2] = Phase 2 trial, serious adverse events; assay type: in vivo, human; settings: grade >/= 2 clinical toxicity, NCI Common Toxicity Criteria v 2.0; 12 subjects
[3] = tested on: ER promoter-luciferase reporter vector construct; assay: ER promoter-luciferase reporter assay in MCF-7 cells; assay type: cell-based, human; settings: 10 μM
Method: The genes were: TFF1 (trefoil factor 1; also known as pS2), PGR (progesterone receptor), and CPSD (cathepsin D). Gene expression was measured by isolating RNA, and performing real time quantitative reverse transcription/polymerase chain reaction (qRT/PCR), using exon spanning primers (purchased from Applied Biosystems). The expression of GAPDH was also measured, and used to normalize the expression of ER responsive genes. Data below are the mean±SD of a single experiment, performed in duplicate. […] Additionally, the ability of compound 46 to activate an ER promoter-luciferase reporter vector construct after transient transfection of the human ER positive breast cancer cell line, MCF-7, was evaluated (FIG. 31). […] “No associated control cells” were transfected with an identical vector construct that lacked the estrogen response element, i.e., noERE.

[4] = tested on: PCa cell lines (PC3, PC3-M, 1532CPTX, 1542CPTX, 1532NPTX, 1542NPTX); assay: Cell invasion assay of PCa cell lines (Examples 2 and 3); assay type: cell-based, human
Description: MEK expression was examined in six human prostate cancer (PCa) cell lines: PC3 and PC3-M metastatic PCa cells, 1532CPTX and 1542 CPTX immortalized localized PCa cells, and 1532 NPTX and 1542 NPTX immortalized normal epithelial cells. The last four cell lines are primary cells, are HPV transformed, and thus represent early stages of prostate carcinogenesis. They provide representative members of the metastatic phenotype, as well as members of early state phenotypes. […] All six cell lines also secrete as well as respond to TGFβ, a regulator of cell motility that plays a role in PCa cell invasiveness.
Assays were conducted using methods as described in Craft et al. (2008, Mol. Pharmocol., 73(1):235-242; herein incorporated by reference in its entirety).

MEK4 [5] = assay: Phosphorylation of MEK4 in vivo (TGFβ stimulated); assay type: cell-based
Method: Phosphorylation by MEK4 (FIG. 4A) and phosphorylation of MEK4 (FIG. 7) was assayed. The Upstate Biotechnology MEK4 assay system was used to measure inhibition of MEK4 activity. Phosphorylation of MEK4 in vivo was assayed using standard techniques.

MEK4 [6] = target: T1, MEK4 (Homo sapiens, UniProt P45985); assay: Upstate Biotechnology MEK4 assay system, inhibition of MEK4 kinase activity; assay type: biochemical; settings: in vitro
T1 construct: purchased Upstate Biotechnology
T1 sequence (P45985 1-399): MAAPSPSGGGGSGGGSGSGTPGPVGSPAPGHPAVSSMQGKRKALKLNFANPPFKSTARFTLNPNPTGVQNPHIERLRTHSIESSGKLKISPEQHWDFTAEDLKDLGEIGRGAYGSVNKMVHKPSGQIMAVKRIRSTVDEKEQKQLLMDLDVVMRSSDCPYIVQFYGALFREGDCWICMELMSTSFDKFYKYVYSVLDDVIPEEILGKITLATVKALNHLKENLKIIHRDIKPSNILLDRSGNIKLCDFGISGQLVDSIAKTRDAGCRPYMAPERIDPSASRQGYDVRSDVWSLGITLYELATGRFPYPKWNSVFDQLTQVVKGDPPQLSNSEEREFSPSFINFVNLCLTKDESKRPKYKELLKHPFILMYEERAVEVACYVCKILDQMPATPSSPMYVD

[7] = cited from earlier work
[8] = 0, 100, 250 mg genistein/kg chow
[9] = Western blot, primary tumor tissue

In the case of O=c1c(-c2ccc(O)cc2)coc2cc(O)cc(O)c12 [genistein], the “increase in nuclear length” value [1] is reported as 1.5±0.7%, the “increase in nuclear width” value [1] is reported as 2.7±0.7% and the “increase in nuclear area” value ([1]; only a trend) is reported as 2.0±1.0%. For the same compound, the “MMP-2 transcript level, % of controls (mean±SEM)” value (MMP-2) was 24±4.1%, the metastasis (human PC3-M PCa cells; [8]) was “decreased metastasis” and the tumor volume (human PC3-M PCa cells; [8]) was “not tumor volume”. The “level of total p38 MAP kinase protein” value (human PC3-M PCa cells; [9]) was “increased the level of total p38 MAP kinase protein”, the “p38 MAP kinase phosphorylation” value (human PC3-M PCa cells; [9]) was “decreased its phosphorylation” and the weight of mice (human PC3-M PCa cells; between cohorts) was “no difference”. The “serious adverse events, number” value [2] was 0, the luciferase activity [3] was “induced luciferase activity” and the cell invasion ([4]; early and late stage PCa cells) was “inhibits invasion of both early and late stage PCa cells”. For the same compound, the “effect of genistein on invasiveness when MEK4 expression suppressed” value ([4]; in the presence of siMEK4) was “abrogated”, the “TGFβ increased MEK4 phosphorylation” value (MEK4 [5]) was “does not block such phosphorylation” and the “phosphorylation of JNK3 by MEK4” value (MEK4 [6]) was “inhibits phosphorylation of JNK3 by MEK4”. The “blood concentration of total genistein” value (100 mg genistein/kg chow cohort) was 290 ± 72 nM, the “blood concentration of total genistein” value (250 mg genistein/kg chow cohort) was 1307 ± 507 nM and the tolerability ([7]; 2 to 8 mg genistein/kg, men with prostate cancer) was “well tolerated”. For the same compound, the “peak concentration of free genistein” value ([7]; 2 to 8 mg genistein/kg) was 66 to 170 nM, the peak concentration of total genistein ([7]; 2 to 8 mg genistein/kg) was 4.3 to 16.3 µM and the clearance ([7]; dependence on body mass) was “not altered by body mass”. For the same compound, the blood genistein conjugated ([7]; in vivo) was greater than 90% and the halflife ([7]; in vivo) was 15 to 22 h.
